Data published in article PMC11044139, “Comparative Study of Toxic Terpenoidal Aldehydes and Lactone Derivatives from the European Polypore Bondarzewia mesenterica” (ACS Omega, 2024).
Converted amounts (≈) assume the structure as drawn. “And” between values parts separate entries of the source, which are not always exact repeats. Identical values can stand only once. Like-named read-outs stand apart in the source and are kept apart here.

How the values were obtained:
[1] = system: human prostate carcinoma (PC-3); assay: Cytotoxicity (MTT) assay, PC-3; format: cell-based
Text: (§1) MTT (3-(4,5-dimethylthiayol-2-yl)-2,5-diphenyltetrazolium bromide)-based assay was used to determine in vitro cytotoxicity as previously reported.[24] The tested mammalian cell lines included mouse fibroblasts (L929), endocervical adenocarcinoma (KB3.1), human lung carcinoma (A549), breast adenocarcinoma (MCF-7), prostate carcinoma (PC-3), and epidermoid carcinoma cells (A431). Epothilone B was used as a positive control.

[2] = system: human breast adenocarcinoma (MCF-7); assay: Cytotoxicity (MTT) assay, MCF-7; format: cell-based
Text: as §1

[3] = system: human ovarian cancer (SKOV-3); assay: Cytotoxicity (MTT) assay, SKOV-3; format: cell-based
[4] = system: human epidermoid carcinoma (A431); assay: Cytotoxicity (MTT) assay, A431; format: cell-based
Text: as §1

[5] = system: human lung carcinoma (A549); assay: Cytotoxicity (MTT) assay, A549; format: cell-based
Text: as §1

[6] = system: Staphylococcus aureus (DSM 346); assay: Antimicrobial assay (MIC), S. aureus; format: cell-based
Method: (§2) The antimicrobial effects of the isolated compounds were determined using our established protocols.[19] Generally, an array of clinically relevant microorganisms consisting of bacteria, namely, S. aureus (DSM 346), A. baumanii (DSM 30008), B. subtilis (DSM 10), E. coli (DSM 1116), P. aeruginosa (PA14), C. violaceum (DSM 30191), and M. smegmatis (ATCC 700084), and fungi including M. hiemalis (DSM 2656), C. albicans (DSM 1665), R. glutinis (DSM 10134), S. pombe (DSM 70572), and P. anomala (DSM 6766), were used. […] The minimum inhibitory concentrations (MIC) were recorded after an overnight incubation as the lowest concentration under which no microbial growth was visualized. The microorganisms were obtained from the German Collection of Microorganisms and Cell Cultures (DSMZ, Braunschweig, Germany).

[7] = system: Escherichia coli (DSM 1116); assay: Antimicrobial assay (MIC), E. coli; format: cell-based; conditions: overnight incubation, n.i. = no inhibition up to 67 μg/mL
Method: as §2

[8] = system: Bacillus subtilis (DSM 10); assay: Antimicrobial assay (MIC), B. subtilis; format: cell-based
Method: as §2

[9] = system: Pseudomonas aeruginosa (PA14); assay: Antimicrobial assay (MIC), P. aeruginosa; format: cell-based; conditions: overnight incubation, n.i. = no inhibition up to 67 μg/mL
Method: as §2

[10] = system: Pichia anomala (DSM 6766); assay: Antimicrobial assay (MIC), P. anomala; format: cell-based
Method: as §2

[11] = system: Candida albicans (DSM 1665); assay: Antimicrobial assay (MIC), C. albicans; format: cell-based
Method: as §2

[12] = system: Acinetobacter baumanii (DSM 30008); assay: Antimicrobial assay (MIC), A. baumanii; format: cell-based; conditions: overnight incubation, n.i. = no inhibition up to 67 μg/mL
Method: as §2

[13] = system: Chromobacterium violaceum (DSM 30191); assay: Antimicrobial assay (MIC), C. violaceum; format: cell-based; conditions: overnight incubation, n.i. = no inhibition up to 67 μg/mL
Method: as §2

[14] = system: Schizosaccharomyces pombe (DSM 70572); assay: Antimicrobial assay (MIC), S. pombe; format: cell-based
Method: as §2

[15] = system: Mucor hiemalis (DSM 2656); assay: Antimicrobial assay (MIC), M. hiemalis; format: cell-based
Method: as §2

[16] = system: Rhodotorula glutinis (DSM 10134); assay: Antimicrobial assay (MIC), R. glutinis; format: cell-based
Method: as §2

[17] = system: Mycobacterium smegmatis (ATCC 700084); assay: Antimicrobial assay (MIC), M. smegmatis; format: cell-based
Method: as §2

mouse fibroblast (L929) = assay: Cytotoxicity (MTT) assay, L929; format: cell-based; conditions: for IC50: Mus musculus, n.a. = no activity
Text: as §1, with “(A431).” for “(A431). Epothilone B was used as a positive control.”

[18] = system: human endocervical adenocarcinoma (KB3.1); assay: Cytotoxicity (MTT) assay, KB3.1; format: cell-based; conditions: for IC50: Homo sapiens, KB 3-1, n.a. = no activity
Text: as §1, with “(A431).” for “(A431). Epothilone B was used as a positive control.”

all tested cell lines = assay: Cytotoxicity (MTT) assay, all tested cell lines; format: cell-based; conditions: read-out: IC50 values, range against all tested cell lines
Text: as §1

[19] = set-up: method as in doi:10.1021/np50038a013; conditions: previous report; cited from earlier work
[20] = overnight incubation, n.i. = no inhibition up to 67 μg/mL
[21] = Pichia anomala, overnight incubation, n.i. = no inhibition up to 67 μg/mL
[22] = DSM2656, overnight incubation, n.i. = no inhibition up to 67 μg/mL, read-out: MIC
[23] = Mycobacterium smegmatis, overnight incubation, n.i. = no inhibition up to 67 μg/mL
[24] = DSM346, overnight incubation, n.i. = no inhibition up to 67 μg/mL, read-out: MIC
[25] = DSM10, overnight incubation, n.i. = no inhibition up to 67 μg/mL, read-out: MIC
[26] = SK-OV-3, SKOV-3, read-out: IC50

Molecule | MIC [6, 20] | MIC [7] | MIC [8, 20] | MIC [9] | MIC [10, 21] | MIC [11, 20] | MIC [12] | MIC [13] | MIC [14, 20] | MIC [16, 20] | MIC [17, 23] | MIC [15, 20] | other results
C/C(=C\c1csc(C)n1)[C@@H]1C[C@@H]2O[C@]2(C)CCC[C@H](C)[C@H](O)[C@@H](C)C(=O)C(C)(C)[C@@H](O)CC(=O)O1 [epothilone B, Epothilone B, reference compound] |  |  |  |  |  |  |  |  |  |  |  |  | IC50 ([1]; PC-3, read-out: IC50, positive control epothilone B): 9e-05 µM; IC50 ([2]; MCF7, read-out: IC50, positive control epothilone B): 7e-05 µM; IC50 ([3]; SK-OV-3, read-out: IC50, positive control epothilone B): 9e-05 µM; IC50 ([4]; A-431, read-out: IC50, positive control epothilone B): 6e-05 µM; IC50 ([5]; A549, read-out: IC50, positive control epothilone B): 5e-05 µM
CC(C)=CC[C@H]1C=C(CO)C=COC1=O [Compound 6, 1,5-secovibralactone] | n.i. | n.i. | n.i. | n.i. | n.i. | n.i. | n.i. | n.i. | n.i. | n.i. | n.i. |  | MIC [15, 22]: 66.6 µg/mL (≈ 320 µM)
CC(C)(O)[C@H]1C[C@H](CC2=CC(=O)OC2)C(=O)O1 [Compound 5, vibralactones Z2] |  | n.i. | n.i. | n.i. | n.i. | n.i. | n.i. | n.i. | n.i. | n.i. | n.i. | n.i. | cytotoxicity (in words) (mouse fibroblast (L929)): non-cytotoxic; cytotoxicity (in words) [18]: non-cytotoxic; MIC [6, 24]: 66.6 µg/mL (≈ 277 µM)
CC(C)=CCC(/C=C(\CO)CCO)C(=O)O (stereo not shown) [Compound 3, sterepinic acid A] |  | n.i. | n.i. | n.i. | n.i. | n.i. | n.i. | n.i. | n.i. | n.i. | n.i. | n.i. | cytotoxicity (in words) (mouse fibroblast (L929)): non-cytotoxic; cytotoxicity (in words) [18]: non-cytotoxic; MIC [6, 24]: 66.6 µg/mL (≈ 292 µM)
CN(C)[C@@H]1C(O)=C(C(N)=O)C(=O)[C@@]2(O)C(O)=C3C(=O)c4c(O)cccc4[C@@](C)(O)[C@H]3[C@H](O)[C@@H]12 [oxytetracycline, reference compound] |  |  |  |  |  |  |  |  |  |  |  |  | MIC [8, 25]: 16.6 µg/mL (≈ 36.1 µM)
NC[C@H]1O[C@H](O[C@H]2[C@H](O)[C@@H](O[C@H]3O[C@H](CO)[C@@H](O)[C@H](N)[C@H]3O)[C@H](N)C[C@@H]2N)[C@H](O)[C@@H](O)[C@@H]1O [kanamycin, reference compound] |  |  |  |  |  |  |  |  |  |  | 1.70^K μg/mL |  | 
Gentamycin [reference compound] | 0.42^G μg/mL | 0.83^G μg/mL |  | 0.42^G μg/mL |  |  |  | 1.67^G μg/mL |  |  |  |  | 
CC(C)=CCC(CC1=CC(=O)OC1)C(=O)O (stereo not shown) [Compound 2, vibralactones J] | n.i. | n.i. | n.i. | n.i. | n.i. | n.i. | n.i. | n.i. | n.i. | n.i. | n.i. | n.i. | 
CC(C)(O)[C@H]1C[C@@H](CC2=CC(=O)OC2)C(=O)O1 [Compound 4, vibralactones Z1] | n.i. | n.i. | n.i. | n.i. | n.i. | n.i. | n.i. | n.i. | n.i. | n.i. | n.i. | n.i. | 
CC(=O)O[C@@H]1CC2C3=C(C(C)C)CC[C@]3(C)CC[C@@]2(C)[C@@H](OC2OC[C@@H](O)[C@H](O)[C@H]2O)C=C1C=O (stereo partly shown) [Compound 7, erinacine P] |  | n.i. |  | n.i. | n.i. | n.i. | n.i. | n.i. | n.i. |  | n.i. |  | IC50 (mouse fibroblast (L929)): 13 µM; IC50 [18]: 5.1 µM; IC50 ([1]; PC-3, read-out: IC50): 4.9 µM; IC50 ([2]; MCF7, MCF-7, read-out: IC50): 3.3 µM; IC50 [3, 26]: 7.7 µM; IC50 ([4]; A-431, A431, read-out: IC50): 3.5 µM; IC50 ([5]; A549, read-out: IC50): 14.2 µM; MIC [6, 24]: 66.6 µg/mL (≈ 135 µM); MIC [8, 25]: 33.3 µg/mL (≈ 67.6 µM); MIC [15, 22]: 66.6 µg/mL (≈ 135 µM); MIC ([16]; DSM10134, overnight incubation, n.i. = no inhibition up to 67 μg/mL, read-out: MIC): 16.6 µg/mL (≈ 33.7 µM); IC50 (all tested cell lines; range over all tested cell lines): 3.3 to 14.2 µM and 3.5 to 14.2 µM
COc1ccc(C(=O)C(C)O)cc1 (stereo not shown) [Compound 12, 2-hydroxy-(4′-methoxy)-propiophenone] | n.i. | n.i. | n.i. | n.i. | n.i. | n.i. | n.i. | n.i. | n.i. | n.i. | n.i. | n.i. | 
CC1(C)CC2C=C(C=O)[C@]3(C=O)C[C@]3(C)C2C1 (single isomer, unassigned; (+)) [Compound 8, (+)-isovelleral] |  | n.i. |  | n.i. |  |  | n.i. | n.i. |  |  |  |  | IC50 (mouse fibroblast (L929)): 10.3 µM; IC50 [18]: 10.3 µM; IC50 ([1]; PC-3, read-out: IC50): 3.9 µM; IC50 ([2]; MCF7, MCF-7, read-out: IC50): 2.8 µM; IC50 [3, 26]: 5.2 µM; IC50 ([4]; A-431, A431, read-out: IC50): 3.4 µM; IC50 ([5]; A549, read-out: IC50): 30.2 µM; MIC ([6]; DSM346): 33.3 µg/mL (≈ 143 µM); MIC ([8]; DSM10): 33.3 µg/mL (≈ 143 µM); MIC ([10]; Hansenula anomala, DSM6766): 16.6 µg/mL (≈ 71.5 µM); MIC ([11]; DSM1665): 33.3 µg/mL (≈ 143 µM); MIC ([14]; DSM70572): 33.3 µg/mL (≈ 143 µM); MIC ([15]; DSM2656): 8.3 µg/mL (≈ 35.7 µM); MIC ([16]; DSM10134): 16.6 µg/mL (≈ 71.5 µM); MIC ([17]; Mycolicibacterium smegmatis, ATCC700084): 33.3 µg/mL (≈ 143 µM); IC50 (all tested cell lines): 2.8 to 30.2 µM; mutagenicity [19]: revealed mutagenicity
C[C@@H]1[C@H](O)[C@@H](C)/C=C/C=C/CC/C=C/C=C/C=C/C=C/C(O[C@H]2O[C@H](C)[C@@H](O)[C@H](N)[C@@H]2O)CC2O[C@](O)(CC(O)C(O)CCC(O)CC(O)CC(O)CC(=O)O[C@H]1C)CC(O)C2C(=O)O (stereo partly shown) [nystatin, reference compound] |  |  |  |  | 8.30^N μg/mL | 8.30^N μg/mL |  |  | 8.30^N μg/mL | 4.20^N μg/mL |  | 8.30^N μg/mL | 
COc1ccc([C@H](O)[C@H](C)O)cc1 [Compound 11, (4-methoxyphenyl)-1,2-propanediol] | n.i. | n.i. | n.i. | n.i. | n.i. | n.i. | n.i. | n.i. | n.i. | n.i. | n.i. | n.i. | 
